Source: ChEMBL document CHEMBL5113546, “Novel SMARCA Degraders for Treating Cancer” (ACS Med Chem Lett, 2022)

Biological target: SWI/SNF-related matrix-associated actin-dependent regulator of chromatin subfamily A member 2 (Homo sapiens, UniProt P51531)
Assay: Induction of SMARCA2 degradation in human A549 cells measured after 24 hrs by MSD assay
Assay type: cell-based

SWI/SNF-related matrix-associated actin-dependent regulator of chromatin subfamily A member 2, sequence (P51531 whole entry): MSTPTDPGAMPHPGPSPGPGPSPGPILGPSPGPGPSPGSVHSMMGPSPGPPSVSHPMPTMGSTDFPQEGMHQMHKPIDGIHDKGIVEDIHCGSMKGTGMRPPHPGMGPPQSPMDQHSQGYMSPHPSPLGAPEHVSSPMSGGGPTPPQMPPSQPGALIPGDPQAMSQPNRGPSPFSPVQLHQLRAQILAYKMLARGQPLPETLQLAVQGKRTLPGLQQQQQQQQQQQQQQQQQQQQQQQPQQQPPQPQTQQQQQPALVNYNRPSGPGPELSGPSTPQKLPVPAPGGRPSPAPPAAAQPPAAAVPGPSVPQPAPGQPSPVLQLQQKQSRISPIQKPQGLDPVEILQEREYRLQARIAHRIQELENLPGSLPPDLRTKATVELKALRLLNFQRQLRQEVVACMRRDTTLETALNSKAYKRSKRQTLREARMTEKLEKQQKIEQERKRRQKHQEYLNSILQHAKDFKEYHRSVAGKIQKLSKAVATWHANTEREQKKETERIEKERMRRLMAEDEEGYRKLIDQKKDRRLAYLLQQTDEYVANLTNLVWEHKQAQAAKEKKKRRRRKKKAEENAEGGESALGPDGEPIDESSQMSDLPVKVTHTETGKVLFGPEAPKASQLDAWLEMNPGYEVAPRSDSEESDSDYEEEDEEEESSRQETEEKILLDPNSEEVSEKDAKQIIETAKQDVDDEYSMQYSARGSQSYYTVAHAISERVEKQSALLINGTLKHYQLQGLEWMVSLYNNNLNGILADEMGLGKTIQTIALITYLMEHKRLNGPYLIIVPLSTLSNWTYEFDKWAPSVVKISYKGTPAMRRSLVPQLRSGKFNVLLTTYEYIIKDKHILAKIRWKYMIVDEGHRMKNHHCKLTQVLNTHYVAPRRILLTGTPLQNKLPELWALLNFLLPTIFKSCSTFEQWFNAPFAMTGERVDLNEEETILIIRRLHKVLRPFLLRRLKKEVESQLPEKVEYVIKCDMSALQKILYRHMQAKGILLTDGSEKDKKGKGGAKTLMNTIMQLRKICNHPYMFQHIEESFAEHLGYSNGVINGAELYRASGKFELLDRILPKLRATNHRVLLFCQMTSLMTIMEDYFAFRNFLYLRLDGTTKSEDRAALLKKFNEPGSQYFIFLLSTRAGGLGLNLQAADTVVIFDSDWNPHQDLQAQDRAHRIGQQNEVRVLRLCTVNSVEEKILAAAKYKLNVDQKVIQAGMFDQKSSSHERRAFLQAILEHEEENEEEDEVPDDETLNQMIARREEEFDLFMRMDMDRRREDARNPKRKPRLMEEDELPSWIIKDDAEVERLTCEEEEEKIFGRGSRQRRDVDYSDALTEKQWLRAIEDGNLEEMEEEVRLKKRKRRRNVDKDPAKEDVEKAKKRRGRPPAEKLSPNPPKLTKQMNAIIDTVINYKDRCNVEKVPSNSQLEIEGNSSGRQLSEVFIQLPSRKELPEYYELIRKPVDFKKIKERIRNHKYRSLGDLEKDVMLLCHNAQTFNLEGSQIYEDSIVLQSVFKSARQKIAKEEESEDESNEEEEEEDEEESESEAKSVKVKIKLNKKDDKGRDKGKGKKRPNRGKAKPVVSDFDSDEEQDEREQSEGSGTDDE

Row | Compound | DC50
1 | Cc1ncsc1-c1ccc(CNC(=O)[C@@H]2C[C@@H](O)CN2C(=O)[C@@H](NC(=O)[C@H]2CC3(C2)C[C@H](N2CCN(c4cnc(N5C6CCC5CN(c5cc(-c7ccccc7O)nnc5N)C6)nc4)CC2)C3)C(C)(C)C)cc1 (stereo partly specified) | < 100 nM
2 | Cc1ncsc1-c1ccc(CNC(=O)[C@@H]2C[C@@H](O)CN2C(=O)C(c2cc(OCCCCN3CCC(c4cnc(N5C6CCC5CN(c5cc(-c7ccccc7O)nnc5N)C6)nc4)CC3)no2)C(C)C)cc1 (stereo partly specified) | < 100 nM
3 | Cc1ncsc1-c1ccc(CNC(=O)[C@@H]2C[C@@H](O)CN2C(=O)C(c2cc(OCCN3CCC(c4cnc(N5C6CCC5CN(c5cc(-c7ccccc7O)nnc5N)C6)nc4)CC3)no2)C(C)C)cc1 (stereo partly specified) | < 100 nM
4 | Cc1ncsc1-c1ccc(CNC(=O)[C@@H]2C[C@@H](O)CN2C(=O)[C@@H](NC(=O)[C@H]2CC3(CC[C@H](N4CCC(c5cnc(N6C7CCC6CN(c6cc(-c8ccccc8O)nnc6N)C7)nc5)CC4)CC3)C2)C(C)(C)C)cc1 (stereo partly specified) | < 100 nM
5 | Cc1ncsc1-c1ccc([C@H](C)NC(=O)[C@@H]2C[C@@H](O)CN2C(=O)[C@@H](NC(=O)[C@H]2CC3(C2)C[C@H](N2CCC(c4cnc(N5C6CCC5CN(c5cc(-c7ccccc7O)nnc5N)C6)nc4)CC2)C3)C(C)(C)C)cc1 (stereo partly specified) | < 100 nM
6 | Cc1ncsc1-c1ccc(C2(NC(=O)[C@@H]3C[C@@H](O)CN3C(=O)[C@@H](NC(=O)[C@H]3CC4(C3)C[C@H](N3CCC(c5cnc(N6C7CCC6CN(c6cc(-c8ccccc8O)nnc6N)C7)nc5)CC3)C4)C(C)(C)C)CC2)cc1 (stereo partly specified) | < 100 nM
